Experiment: Reactivity of PL13 free acid with aspartic acid
Settings: 10 equivalents Asp, pH 7.0, 18 hours, RT
Experimental: PL13 free acid was treated with 10 equivalents of aspartic acid (Asp) at pH 7.0 and at RT. Analysis was performed by RP-HPLC at gradient of 1% to 50% B over 15 minutes with detection at 254 nm.
50 μL of 2.61 mM PL13 free acid in methanol was mixed with […] of […] in buffer to give a final concentration of 0.42 mM PL13 free acid and 4.2 mM Asp.

C=Cc1cc(C)nc(CCC(=O)O)c1 [PL13 free acid]
stability in the presence of Asp: stable

From US11285220B2, “Materials and methods relating to linkers for use in protein drug conjugates” (Iksuda Therapeutics Limited, priority 2014, dated 2022)
